Measurements from article PMC2566937 (Journal of medicinal chemistry, 2008).
Values joined by “and” are separate entries in the source; they are usually repeats but may differ in a detail not shown here. Equal values may be shown once. “Also recorded” adds a separate entry of the source. Marks after values point to notes of the source that are not given here.

Key:
[1] = system: GABA recognition site (GABAA receptors) in native cortical membranes; experiment: [3H]muscimol binding, rat cortical membranes; settings: for Inhibition of muscimol binding at 100 μM (criterion for full binding analysis): cortical and cerebellar membranes (tissue not given); for pseudo-Hill coefficient η, cortex: against 6 nM [3H]muscimol, mean ± S.E.M.
[2] = system: GABA recognition site (GABAA receptors) in native cerebellar membranes; experiment: [3H]muscimol binding, rat cerebellar membranes; settings: for pseudo-Hill coefficient η, cerebellum: against 6 nM [3H]muscimol, mean ± S.E.M.
α5β3γ2 GABAA receptor = α5β3γ2 GABAA receptor (Rattus norvegicus, UniProt P19969+P63079)
α4β3γ2 GABAA receptor = α4β3γ2 GABAA receptor (Rattus norvegicus, UniProt P28471+P63079); settings: for Current induced by compound alone, % of maximal GABA-induced current: 1 mM compound
α3β3γ2 GABAA receptor [3] = target: T1, α3β3γ2 GABAA receptor (Rattus norvegicus, UniProt P20236+P63079)
α3β3γ2 GABAA receptor [4] = target: T1, α3β3γ2 GABAA receptor; type: cell-based; settings: 1 mM compound co-applied with approx. GABA EC20–25
α1β3γ2 GABAA receptor [5] = target: T2, α1β3γ2 GABAA receptor (Rattus norvegicus, UniProt P62813+P63079); settings: for Current induced by compound alone, % of maximal GABA-induced current: 1 mM compound
α1β3γ2 GABAA receptor [6] = target: T2, α1β3γ2 GABAA receptor; type: cell-based; settings: 1 mM compound co-applied with approx. GABA EC20–25
α1R66Cβ2 GABAA receptor = α1R66Cβ2 GABAA receptor (Rattus norvegicus, UniProt P62813+P63138, R93C)
α1F64Cβ2 GABAA receptor [7] = target: T3, α1F64Cβ2 GABAA receptor (Rattus norvegicus, UniProt P62813+P63138, F91C)
α1β2 wt GABAA receptor [8] = target: T4, α1β2 wt GABAA receptor (Rattus norvegicus, UniProt P62813+P63138); experiment: Cysteine modification by MTS reagent, oocyte voltage clamp, wt; type: cell-based; settings: data not shown
α1S68Cβ2 GABAA receptor = α1S68Cβ2 GABAA receptor (Rattus norvegicus, UniProt P62813+P63138, S95C); type: cell-based; settings: read-out: Inhibition of the EC20 GABA current
α1F64Cβ2 GABAA receptor [9] = target: T3, α1F64Cβ2 GABAA receptor; type: cell-based
α1β2 wt GABAA receptor [10] = target: T4, α1β2 wt GABAA receptor; type: cell-based
[11] = read-out: Inhibition of the EC20 GABA current

Cl.NCCc1nnc(O)o1 [5g]
Inhibition of muscimol binding at 100 μM (criterion for full binding analysis) [1]: at least 30% | pseudo-Hill coefficient η, cortex [1]: 0.63 and 0.63 ± 0.06 | pseudo-Hill coefficient η, cerebellum [2]: 0.92 and 0.92 ± 0.11

Cc1nnc(C2CCNCC2)o1.Cl [compound 19, 4-(5-Methyl-[1,3,4]oxadiazol-2-yl)-piperidine Hydrochloride]
Current induced by compound alone, % of maximal GABA-induced current (α5β3γ2 GABAA receptor; 1 mM compound): less than 10% | Inhibition of muscimol binding at 100 μM (criterion for full binding analysis) [1]: at least 30% | pseudo-Hill coefficient η, cortex [1]: 0.88 ± 0.08 | Current induced by compound alone, % of maximal GABA-induced current (α4β3γ2 GABAA receptor): less than 10% | Current induced by compound alone, % of maximal GABA-induced current (α3β3γ2 GABAA receptor [3]; 1 mM compound, α3β3γ2): less than 10% | Potentiation of GABA-induced current (α3β3γ2 GABAA receptor [4]): 11% | Current induced by compound alone, % of maximal GABA-induced current (α1β3γ2 GABAA receptor [5]): less than 10% | pseudo-Hill coefficient η, cerebellum [2]: 0.91 ± 0.05 | Potentiation of GABA-induced current (α1β3γ2 GABAA receptor [6]): 21%

Oc1nnc(C2CCCCC2)o1 [9d, 5-Cyclohexyl-3H-[1,3,4]oxadiazole-2-one]
Percent inhibition of [3H]muscimol binding, cerebellum, 100 μM ([2]; 100 μM test compound, well-washed rat cerebellum membranes, mean ± S.D.): −11 ± 11 (3) %

Cl.NCc1nnc(S)o1 [6d, 5-Aminomethyl-3H-[1,3,4]oxadiazol-2-thione Hydrochloride]
Inhibition of muscimol binding at 100 μM (criterion for full binding analysis) [1]: at least 30% | pseudo-Hill coefficient η, cortex [1]: 0.92 ± 0.05 | pseudo-Hill coefficient η, cerebellum [2]: 0.96 ± 0.12

Cl.Oc1nnc(C2CCNCC2)o1 [5a, 5-Piperidin-4-yl-3H-[1,3,4]oxadiazol-2-one Hydrochloride]
Effect of repeated application on subsequent GABA currents (α1R66Cβ2 GABAA receptor; repeated 10 s applications of 30 mM, α1R66Cβ2): did not decrease the subsequent GABA test currents; also recorded: did not irreversible alter the subsequent GABA currents | Inhibition of muscimol binding at 100 μM (criterion for full binding analysis) [1]: at least 30% | pseudo-Hill coefficient η, cortex [1]: 0.86 ± 0.10 | Current induced by compound alone, % of maximal GABA-induced current (α4β3γ2 GABAA receptor): less than 10% | Potentiation of GABA-induced current (α3β3γ2 GABAA receptor [4]): 22 ± 11% | Current induced by compound alone, % of maximal GABA-induced current (α1β3γ2 GABAA receptor [5]): less than 10% | pseudo-Hill coefficient η, cerebellum [2]: 0.79 ± 0.06

CS(=O)(=O)SCCS(=O)(=O)O [MTSES^−, 2-sulfonatoethyl methanethiosulfonate]
Inhibition of subsequent GABA EC50 current, MTSES− alone (control) (α1R66Cβ2 GABAA receptor; 12 s, 2 mM MTSES−, α1R66Cβ2): 91 ± 3% | Inhibition of GABA EC50 currents after complete reaction with MTS reagent (α1R66Cβ2 GABAA receptor; α1R66C + β2, % ± S.E.M.): 62 ± 3 (4) % | Second-order reaction rate constant with the engineered cysteine (α1R66Cβ2 GABAA receptor; α1R66Cβ2): 48 ± 7 M⁻¹ s⁻¹ | Reduction in subsequent GABA EC50 test currents, MTSES− alone (control) (α1F64Cβ2 GABAA receptor [7]; 12 s, 10 μM MTSES−, α1F64Cβ2): 87% and 87 ± 3% | Inhibition of GABA EC50 currents after complete reaction with MTS reagent (α1F64Cβ2 GABAA receptor [7]; α1F64C + β2, % ± S.E.M.): 89 ± 3 (4) % | Effect of MTS reagent on the GABA current (α1β2 wt GABAA receptor [8]): did not affect the GABA current

Cl.Sc1nnc(C2CCNCC2)o1 [6a, 5-Piperidin-4-yl-3H-[1,3,4]oxadiazol-2-thione Hydrochloride]
Inhibition of muscimol binding at 100 μM (criterion for full binding analysis) [1]: at least 30% | pseudo-Hill coefficient η, cortex [1]: 0.99 ± 0.09 | Current induced by compound alone, % of maximal GABA-induced current (α4β3γ2 GABAA receptor): less than 10% | Potentiation of GABA-induced current (α3β3γ2 GABAA receptor [4]): 114 ± 8% | inhibition at 1000 µM (α1S68Cβ2 GABAA receptor): > 90% | Current induced by compound alone, % of maximal GABA-induced current (α1β3γ2 GABAA receptor [5]): less than 10% | pseudo-Hill coefficient η, cerebellum [2]: 1.03 ± 0.08 | 6a EC50 relative to wt (α1F64Cβ2 GABAA receptor [9]): 0.6 fold | inhibition at 1000 µM (α1F64Cβ2 GABAA receptor [9]; [11]): > 90% | inhibition at 1000 µM (α1β2 wt GABAA receptor [10]; [11]): > 90%

Cl.NCc1nnc(O)o1 [5d, 5-Aminomethyl-3H-[1,3,4]oxadiazol-2-one Hydrochloride]
Hill coefficient (direct activation) (α5β3γ2 GABAA receptor): 1.31 ± 0.12 | Inhibition of muscimol binding at 100 μM (criterion for full binding analysis) [1]: at least 30% | pseudo-Hill coefficient η, cortex [1]: 1.12 ± 0.13 | Hill coefficient (direct activation) (α4β3γ2 GABAA receptor): 1.56 ± 0.11 | EC50 (α3β3γ2 GABAA receptor [3]): 1000 µM | Hill coefficient (direct activation) (α3β3γ2 GABAA receptor [3]; α3β3γ2, value of an extrapolated dose-response curve): 0.81 ^* | Hill coefficient (direct activation) (α1β3γ2 GABAA receptor [5]): 0.99 ± 0.05 | pseudo-Hill coefficient η, cerebellum [2]: 0.90 ± 0.21

C=C(C)[C@@H]1[C@H]2OC(=O)[C@@H]1[C@]1(O)C[C@H]3O[C@]34C(=O)O[C@H]2[C@]14C [picrotoxinin, reference compound]
inhibition at 100 µM (α1β2 wt GABAA receptor [10]; read-out: Inhibition of 6a-induced currents): 80 to 90%

CS(=O)(=S)OCCNC(=O)CCCC[C@@H]1SC[C@@H]2NC(=O)N[C@@H]21 (stereo partly shown) [MTSEA-biotin]
Inhibition of subsequent GABA test currents, MTSEA-biotin alone (control) (α1R66Cβ2 GABAA receptor; 30 μM MTSEA-biotin, α1R66Cβ2, n = 2): 87% and 100%
